Results published in patent US20250073311A1, “DOSAGE REGIME” (ZEALAND PHARMA A/S, priority 2021, published 2025).
Where “and” joins values, the source holds several entries; their conditions need not be identical. Equal entries are not always repeated. Where two headings read alike, the source gives them in different places. Numbered stars: 1 amine (or outer) side, 2 acyl side, 3 side chain; on linkers, the order of the positions; unused ones are H or OH. Square brackets hold non-standard residues; d marks the D form. Side chains are listed from the residue outwards. Peptide text beside a SMILES is read from it. * marks the point of attachment. C18 diacid = O=C(O)CCCCCCCCCCCCCCCCC(=O)*; γGlu = O=C(O)[C@H](CCC(=O)[*:2])N[*:1]; Aib = CC(C)(N)C(=O)O

Legend:
[1] = test system: healthy human subjects; experiment: Standard meal test (lunch and dinner), Phase 1b trial; format: in vivo
Source text: (§1) Reduction in appetite is reflected in the reduction in food intake measured by mixed meal test for breakfast (Table 11) and by measuring caloric intake at standard meals for lunch and dinner (Table 12).
Pre-defined lunch and dinner meals were served at baseline (on Day -1) and after 4th dose (Day 23). Consumption was supervised and leftovers were weighed.

[2] = test system: healthy human subjects; experiment: Mixed meal test (breakfast), Phase 1b trial; format: in vivo
Method: as §1
The Mixed Meal Test (MMT) was performed at baseline, at 24 hours, after the first dosing (Day 2) and after the fourth dosing (Day 23). The meal consisted of a fixed nutrient content and the exact initial amount of nutrients were weighed by kitchen staff on a lab scale using the method of weighed intake. Consumption was supervised and leftovers were weighed and recorded as percentage of meal. Adjustment of leftovers on Day 2 will be performed for Day 23 and differences in weight will be calculated in carbohydrates.

[3] = Body weight in Phase 1b trial; format: in vivo, human; settings: four once weekly s.c. doses, 1.0 mg to 3.5/6.0 mg, healthy subjects, FIG. 3
[4] = test system: healthy human subjects; experiment: Multiple ascending dose Phase 1b trial, adverse events; format: in vivo; settings: 7 subjects
Method: A multiple ascending dose Phase 1b trial was conducted for Cpd. 18 investigating the safety of multiple subcutaneous injections of various ascending doses in healthy human subjects. The trial was a Randomized, Double-blind, Placebo-controlled, Multi Ascending Dose Trial assessing Safety, Tolerability, Pharmacokinetics and Pharmacodynamics of Multiple Subcutaneous Dose of Cpd. 18 in Healthy human Subjects.
Four cohorts were dosed with four once weekly subcutaneous administrations. In each cohort, consisting of 10 subjects each, subjects were randomized to either placebo (n=3) or to the following active multiple ascending dose levels (n=7): 4 weekly dose injections of 1.0 mg; 4 weekly dose injections of 2.25 mg; 4 weekly dose injections of 3.5 mg and 1 weekly dose injections of 3.5 mg followed by 3 weekly dose injections of 6.0 mg.
Adverse events (AE) were captured by asking open ended and non-leading questions according to the following wording in the protocol:
• All events meeting the definition of an AE must be collected and reported from the first trial-related activity after the subject has signed the informed consent and until the end of the post-treatment follow-up period. At each contact with the site (Visit or telephone) the subject must be asked about AEs. All AEs, either observed by the Investigator or reported by the subject, must be recorded by the Investigator and evaluated. • The Investigator should record the diagnosis, if possible. If no diagnosis can be made the Investigator should record each sign and symptom as individual AEs. • All AEs must be recorded by the Investigator. One single Adverse Event Form must be used per AE from start to resolution. For Serious Adverse Events (SAE), the Serious Adverse Event Form must also be completed.”
The safety data (incidence/number of subjects) for subjects dosed 4×1.0 mg to 1×3.5 mg plus 3×6.0 mg as well as placebo is shown in Table 10 below.

[5] = Plasma half-life in single ascending dose Phase 1a trial (LC-MS/MS); format: in vivo; settings: human
Method: Blood sampling for determining Cpd 18 plasma concentrations were performed during the phase la study (outlined in Example 2) at scheduled timepoints. Concentration of Cpd 18 in plasma was measured using a validated LC-MS/MS assay. Pharmacokinetic (PK) endpoints for Cpd 18 were derived from the individual concentration profiles (with hour as time unit). For PK analysis, Cpd 18 concentrations were supplied by the analytical laboratory in nmol/L. Mean measured concentrations per dose level are shown in […].
For determination of λz a linear regression was performed using the logarithm to plasma Cpd. 18 concentration as the response variable and at least three valid concentration measurements of the terminal end period after Cmax. (The exact number of data points depends on the best goodness-of-fit). Cmax is not included in the calculation for λz as this point may be affected by absorption still taking place from the injection site.
The terminal elimination half-life of the plasma Cpd. 18 profile (t½) was calculated by the following formula: […]

[6] = 1 × 3.5 mg plus 3 × 6.0 mg weekly s.c.

CC[C@H](C)[C@H](NC(=O)[C@H](Cc1ccccc1)NC(=O)[C@H](CC(=O)O)NC(=O)[C@H](CCCNC(=N)N)NC(=O)[C@H](C)NC(=O)[C@H](C)NC(=O)[C@H](CCC(N)=O)NC(=O)[C@H](CCCCNC(=O)CC[C@H](NC(=O)CCCCCCCCCCCCCCCCC(=O)O)C(=O)O)NC(=O)[C@H](CC(=O)O)NC(=O)[C@H](CC(C)C)NC(=O)[C@@H](NC(=O)[C@@H](NC(=O)[C@H](C)NC(=O)[C@H](CC(C)C)NC(=O)[C@H](CCC(=O)O)NC(=O)[C@H](CO)NC(=O)[C@@H](NC(=O)[C@H](Cc1ccccc1)NC(=O)[C@H](CO)NC(=O)CNC(=O)[C@H](CCC(=O)O)NC(=O)C(C)(C)NC(=O)[C@@H](N)Cc1c[nH]cn1)[C@@H](C)O)[C@@H](C)O)[C@@H](C)CC)C(=O)N[C@@H](C)C(=O)N[C@@H](Cc1c[nH]c2ccccc12)C(=O)N[C@@H](CC(C)C)C(=O)N[C@H](C(=O)N[C@@H](CCC(N)=O)C(=O)N[C@@H](Cc1c[nH]cn1)C(=O)N[C@@H](CCCCN)C(=O)N[C@H](C(=O)N[C@H](C(=O)N[C@@H](CC(=O)O)C(=O)O)[C@@H](C)O)[C@@H](C)CC)[C@@H](C)CC [Compound 18] (H-H[Aib]EGSFTSELATILDK([γGlu-C18 diacid])QAARDFIAWLIQHKITD-OH)
Mean food consumption ([1]; Dinner, After 4th dose (Day 23), cohort 1.0 mg weekly): 682 kcal | Mean food consumption ([1]; Dinner, After 4th dose (Day 23), cohort 2.25 mg weekly): 585 kcal | Mean food consumption ([1]; Dinner, After 4th dose (Day 23), cohort 3.5 mg weekly): 594 kcal | Mean food consumption ([1]; Dinner, After 4th dose (Day 23), cohort 3.5/6.0 mg weekly): 423 kcal | Mean food consumption ([1]; Dinner, Baseline (Day -1), cohort 1.0 mg): 694 kcal | Mean food consumption ([1]; Dinner, Baseline (Day -1), cohort 2.25 mg): 679 kcal | Mean food consumption ([1]; Dinner, Baseline (Day -1), cohort 3.5 mg): 695 kcal | Mean food consumption ([1]; Dinner, Baseline (Day -1), cohort 3.5/6.0 mg): 694 kcal | Mean food consumption ([1]; Lunch, After 4th dose (Day 23), cohort 1.0 mg weekly): 705 kcal | Mean food consumption ([1]; Lunch, After 4th dose (Day 23), cohort 2.25 mg weekly): 649 kcal | Mean food consumption ([1]; Lunch, After 4th dose (Day 23), cohort 3.5 mg weekly): 647 kcal | Mean food consumption ([1]; Lunch, After 4th dose (Day 23), cohort 3.5/6.0 mg weekly): 403 kcal | Mean food consumption ([1]; Lunch, Baseline (Day -1), cohort 1.0 mg): 701 kcal | Mean food consumption ([1]; Lunch, Baseline (Day -1), cohort 2.25 mg): 638 kcal | Mean food consumption ([1]; Lunch, Baseline (Day -1), cohort 3.5 mg): 706 kcal | Mean food consumption ([1]; Lunch, Baseline (Day -1), cohort 3.5/6.0 mg): 671 kcal | Mean food consumption ([2]; After 1st dose (Day 2), cohort 1.0 mg): 99.0% | Mean food consumption ([2]; After 1st dose (Day 2), cohort 2.25 mg): 95.4% | Mean food consumption ([2]; After 1st dose (Day 2), cohort 3.5 mg): 99.2% and 96.2% | Mean food consumption ([2]; After 1st dose (Day 2), cohort 3.5/6.0 mg): 87.5% | Mean food consumption ([2]; After 4th dose (Day 23), cohort 1.0 mg weekly): 98.6% | Mean food consumption ([2]; After 4th dose (Day 23), cohort 2.25 mg weekly): 95.8% | Mean food consumption ([2]; After 4th dose (Day 23), cohort 3.5 mg weekly): 93.2% | Mean food consumption ([2]; After 4th dose (Day 23), cohort 3.5/6.0 mg weekly): 62.5% | Mean food consumption ([2]; Baseline, cohort 1.0 mg): 99.2% | Mean food consumption ([2]; Baseline, cohort 2.25 mg): 100% | Mean food consumption ([2]; Baseline, cohort 3.5 mg): 100% | Mean food consumption ([2]; Baseline, cohort 3.5/6.0 mg): 95.8% | Body weight [3]: dose dependent reduction in body weight | Subjects experiencing decreased appetite [4, 6]: 6/7 and 6 | Subjects experiencing nausea [4, 6]: 4 | Subjects experiencing vomiting [4, 6]: 3 | Subjects experiencing decreased appetite ([4]; 4 weekly s.c. doses of 1.0 mg): 0 | Subjects experiencing nausea ([4]; 4 weekly s.c. doses of 1.0 mg): 1 | Subjects experiencing vomiting ([4]; 4 weekly s.c. doses of 1.0 mg): 0 | Subjects experiencing decreased appetite ([4]; 4 weekly s.c. doses of 2.25 mg): 3/7 and 3 | Subjects experiencing nausea ([4]; 4 weekly s.c. doses of 2.25 mg): 1 | Subjects experiencing vomiting ([4]; 4 weekly s.c. doses of 2.25 mg): 0 | Subjects experiencing decreased appetite ([4]; 4 weekly s.c. doses of 3.5 mg): 2/7 and 2 | Subjects experiencing nausea ([4]; 4 weekly s.c. doses of 3.5 mg): 0 | Subjects experiencing vomiting ([4]; 4 weekly s.c. doses of 3.5 mg): 0 | half-life ([5]; sc, single s.c. dose 0.02 mg, healthy subjects, N 6, read-out: t1/2 Mean (converted)): 140 h | half-life ([5]; sc, single s.c. dose 0.07 mg, healthy subjects, N 6, read-out: t1/2 Mean (converted)): 126 h | half-life ([5]; sc, single s.c. dose 0.2 mg, healthy subjects, N 6, read-out: t1/2 Mean (converted)): 129 h | half-life ([5]; sc, single s.c. dose 0.6 mg, healthy subjects, N 6, read-out: t1/2 Mean (converted)): 110 h | half-life ([5]; sc, single s.c. dose 1.5 mg, healthy subjects, N 6, read-out: t1/2 Mean (converted)): 120 h | half-life ([5]; sc, single s.c. dose 3 mg, healthy subjects, N 6, read-out: t1/2 Mean (converted)): 120 h | half-life ([5]; sc, single s.c. dose 6 mg, healthy subjects, N 6, read-out: t1/2 Mean (converted)): 112 h | half-life ([5]; sc, single s.c. dose 7.5 mg, healthy subjects, N 6, read-out: t1/2 Mean (converted)): 135 h | half-life ([5]; subcutaneous, following a single dose, across dose groups, read-out: calculated mean half-life): 110 to 135 h
